Reference: patent US20040266791A1 (priority 2003, published 2004)
Counter-ions that a name gives are not always drawn.

Experiments:
[1] = Hygroscopicity test / water content by Karl Fischer titration; assay type: physicochemical; details: for Water content in % at 2 weeks, 40/75: 40° C./75% relative humidity; for Water content in % at 2 weeks, normal: normal conditions (open air); for Water content in % at t = 0: before storage, Karl Fischer; for water content: isolated dried product of the example
Procedure: The salts were subjected to storage at normal conditions (open air) and at 40° C./75% relative humidity. Water content was determined by Karl Fischer titration.

[2] = in water at 20° C., calculated on free base
Procedure: The dissolution of the solid can take a period of time until an equilibrium/steady state between the solid and liquid phases is reached. […] This value is taken as the solubility determination.
Then, 2 ml of the suspension was filtered over a micropore filter. Finally, 1.0 ml of the filtrate was freeze-dried, followed by weight determination of the residue. The maximum amount of the salt dissolved (recalculated to the base), was calculated from this weight determination.

[3] = 1 mg/ml aqueous solution, 2% sorbitol, 0.2% benzoic acid, stress temperatures up to 80° C.
Procedure: Dissolve the benzoic acid in 60% of the water (heat if necessary to 90° C., allow to cool afterwards). […] The sorbitol is dissolved in the remaining water (40%). Combine both solutions and make up the volume with water.

[4] = cited from earlier work

| Compound | Water content in % at 2 weeks, 40/75 [1] [%] | Water content in % at 2 weeks, normal [1] [%] | Water content in % at t = 0 [1] [%] | solubility (calc. on free base) [2] [mg/mL] | other results |
| --- | --- | --- | --- | --- | --- |
| Risperidone acetate monohydrate | 3.66 | 3.39 | 3.78 | 72 | – |
| Risperidone hemitartrate | 0.59 | 0.56 | 0.28 | 40 | water content [1]: Water content: 0.28% |
| Cc1nc2n(c(=O)c1CCN1CCC(c3noc4cc(F)ccc34)CC1)CCCC2.O=C(O)C=CC(=O)O [Risperidone hydrogenmaleate] | 0.07 | 0.09 | 0.09 | – | water content [1]: water content: <0.1%; stability of solution [3]: surprisingly stable |
| Cc1nc2n(c(=O)c1CCN1CCC(c3noc4cc(F)ccc34)CC1)CCCC2 [Risperidone dihydrochloride] | 0.15 | 0.15 | 0.13 | – | water content after exposure to air under ambient conditions for 3 weeks ([1]; 3 weeks, air, ambient conditions): 3 weeks: 0.30%; absorbed or adsorbed water ([1]; absence of drying, or standing at ambient temperature in open air): less than 0.5%; hygroscopicity ([1]; standing at ambient temperature in open air): not hygroscopic; stability of solution [3]: surprisingly stable |
| Risperidone tosylate | – | – | – | 2 | – |
| Cc1nc2n(c(=O)c1CCN1CCC(c3noc4cc(F)ccc34)CC1)CCCC2 [Risperidone base, 3-[2-[4-(6-Fluoro-1,2-benzisoxazol-3-yl)-1-piperidinyl]-ethyl]-6,7,8,9-tetrahydro-2-methyl-4-H-pyrido[1,2-a]-pyrimidin-4-one] | – | – | – | – | solubility in water ([4]; background statement, no source given): approximately 4 mg/ml |
| Risperidone mesylate | – | – | 0.41 | >160 | Water content in % at 2 weeks, 40/75 ([1]; listed as Mesylate): 8.51%; Water content in % at 2 weeks, 40/75 ([1]; listed as risperidone mesylate): 2 weeks: 8.51%; Water content in % at 2 weeks, normal ([1]; listed as Mesylate): 1.38%; Water content in % at 2 weeks, normal ([1]; listed as risperidone mesylate): for 2 weeks: 1.38%; water content [1]: water content: 0.41% |
| risperidone tartrate | – | – | – | – | room temperature solubility ([4]; reported in U.S. Pat. No. 5,616,587): about 80 mg/ml |
| Risperidone besylate | – | – | – | 6.5 | – |
| Risperidone (L)hemimalate | 1.09 | 0.95 | 0.89 | >300 | stability of solution [3]: surprisingly stable |
| Risperidone Hemifumarate | – | – | – | 3 | – |
